The values below come from patent US6344478B2, “Use of cloprostenol and fluprostenol analogues to treat glaucoma and ocular hypertension” (Alcon Manufacturing, Ltd., priority 1993, dated 2002).

The structures appear in SMILES notation.

Data set [1] relates to IOP in cynomolgus monkey eyes. Nature of the data set: Monkey IOP response in lasered (ocular hypertensive) cynomolgus monkey eyes. The class given is in vivo. The conditions noted are these: lasered right eyes of cynomolgus monkeys; five-dose regimen; estimated from dose response relationship. The method, then:
In the study presented below, compound 6 (Table 2, above) was tested for IOP-lowering effect in cynomolgus monkey eyes.
The right eyes of the cynomolgus monkeys used in this study were previously given laser trabeculoplasty to induce ocular hypertension in the lasered eye. Animals had been trained to sit in restraint chairs and conditioned to accept experimental procedures without chemical restraint. IOP was determined with a pneumatonometer after light corneal anesthesia with dilute proparacaine. The test protocol included a five-dose treatment regimen because of the typical delayed response to prostaglandins. The designated test formulations were administered to the lasered right eyes, and the normal left eyes remained untreated, although IOP measurements were taken. Baseline IOP values were determined prior to treatment with the test formulation, and then IOP was determined from 1 to 7 hours after the first dose, 16 hours after the fourth dose, and 1 to 4 hours after the fifth dose.
The equivalent response dose (ED20) is estimated from the dose response relationship to be the dose producing a 20% peak reduction in IOP.

Another data set has as its system pupil diameter of cats. Nature of the data set: Cat pupil diameter response (pupillary constriction in the cat). The conditions noted are these: for ED5 (equivalent response dose, from Area1-5 of pupil diameter versus time curve): area under pupil diameter vs time curve 1-5 hours, estimated from dose response relationship. It counts as in vivo. On the procedure:
PGF2α analogues are known to contract the iris sphincter of cats and this assay is a generally accepted reference for activity.
Compounds of the present invention were therefore screened for pupillary constriction in the cat. The response is quantitated as Area1-5 values (area under the pupil diameter versus time curve from 1-5 hours), and the equivalent response dose (ED5) is estimated from its dose response relationship.

Data set [2] is described as follows: Systemic blood pressure, heart rate and blood pH/gas analysis in the rabbit ONH blood flow study. The conditions noted are these: 0.004% topical q.d. 7 days. The class given is in vivo, Dutch-Belted rabbits. On the procedure:
(§1) Purpose: A two-way crossover study design was used to compare the effects of Compound 1B (0.004%), topically applied, and dosing vehicle on microvascular optic nerve head blood flow, blood pressure, heart rate, and acid-base balance in fifteen acepromazine-tranquilized Dutch-Belted rabbits. Methods: Baseline measurements were taken before treatment and after drug-free washout periods of 14 days. Microvascular optic nerve head (ONH) blood flow was measured with a fundus camera-based Laser Doppler flowmeter (LDf). Thirty microliters o a 0.004% solution of Compound 1B or vehicle was administered in left eyes only q.d. for 7 days. Experimental measurements were made 2 hours after the topical dose was administered on day 8. A sterile 23 gauge intracatheter was inserted into the central ear artery to monitor blood pressure and to take blood samples for blood pH/gas analysis.

In data set [3] the test system is microvascular optic nerve head (ONH) blood flow. Description: Optic nerve head blood flow after one-week topical treatment in the rabbit (Laser Doppler flowmeter). The class given is in vivo, Dutch-Belted rabbits. The method, then: as §1

For the molecule `CC(C)OC(=O)CCC/C=C\CC1C(CC[C@@H](O)COc2cccc(C(F)(F)F)c2)[C@H](O)C[C@@H]1O` (stereo partly drawn) [Compound 6, (5Z)-(9S, 11R, 15R)-17,18,19,20-Tetranor-16-(3-trifluoromethylphenoxy)-9,11,15-trihydroxy-5-prostenoic Acid Isopropyl Ester], in data set [1], the “ED20 (dose producing a 20% peak reduction in IOP)” value was 0.3 µg. In addition, the “ED5 (equivalent response dose, from Area1-5 of pupil diameter versus time curve)” value with pupil diameter of cats was 0.2 µg.

As for `CC(C)(C)C(=O)OCCCC/C=C\C[C@@H]1[C@@H](CC[C@@H](O)COc2cccc(Cl)c2)[C@H](O)C[C@@H]1O` [Compound 8, (5Z)-(9S, 11R, 15R)-16-(3-Chlorophenoxy)-17,18,19,20-tetranor-9,11,15-trihydroxy-5-prostenol Pivaloate], the “ED5 (equivalent response dose, from Area1-5 of pupil diameter versus time curve)” value in the data set on pupil diameter of cats was 0.06 µg. Besides, the “potency in cat pupil diameter response compared with the standard compounds” value in the data set on pupil diameter of cats (versus PGF2α isopropyl ester and cloprostenol isopropyl ester) was “nearly equivalent potency”.

`CCCCC[C@H](O)/C=C/[C@@H]1[C@@H](C/C=C\CCCC(=O)OC(C)C)[C@@H](O)C[C@H]1O` [PGF2α Isopropyl Ester, reference compound]: in data set [1], the “ED20 (dose producing a 20% peak reduction in IOP)” value is 0.4 µg. For the same molecule, the “ED5 (equivalent response dose, from Area1-5 of pupil diameter versus time curve)” value in the data set with pupil diameter of cats was 0.02 µg.

As to `CC(C)OC(=O)CCC/C=C\C[C@@H]1[C@@H](/C=C/[C@@H](O)COc2cccc(Cl)c2)[C@H](O)C[C@@H]1O` [Compound 1A, Cloprostenol, isopropyl ester], in the data set with pupil diameter of cats, the “ED5 (equivalent response dose, from Area1-5 of pupil diameter versus time curve)” value was 0.01 µg.

Consider `CC(C)OC(=O)CCC/C=C\C[C@H]1C(O)CC(O)[C@@H]1/C=C/C(O)COc1cccc(C(F)(F)F)c1` (stereo partly shown) [Compound 1B, Fluprostenol, isopropyl ester], for which, in data set [2], the “changes in systemic blood pressure, heart rate, blood gas tensions and pH compared with the vehicle group” value is “small non-significant changes”; the “mean percent decrease in arterial pCO2 tension” value is recorded as 2.59±2.5%; the “mean percent decrease in arterial pO2 tension” value came to 1.44±2.03%; the “mean percent decrease in systemic arterial pH” value was 0.07±0.09%. In data set [3] (0.004% solution, 30 microliters topical q.d. 7 days, measured 2 hours after dose on day 8, acepromazine-tranquilized rabbits), the “ONH blood flow, mean±SEM percent increase from baseline” value is on record as 13.4±3.9%. For the same molecule, the “ONH blood flow compared to the vehicle treated group” value in data set [3] (0.004% topical q.d., p<0.05) is “significantly increased”.
